Source: patent US20240408169A1 (priority 2023, published 2024)
Where two headings read alike, the source gives them in different places. *1 amine or outer side, *2 acyl side, *3 side chain or, on linkers, in order; H or OH if unused. Where a SMILES comes first, the peptide text is derived from it. Bridges are numbered along the chain shown (N, C = ends). [ ]: non-standard residue; d: D form. The star is where a group is joined. X184 = CC(=O)N1CCC(c2ccc(F)cc2C[C@@H](C(=O)[*:2])N(C)[*:1])CC1; X68 = CN([C@@H](Cc1cc(Cl)ccc1-c1cnn(C2CC2)c1)C(=O)[*:2])[*:1]; NMehhhLys(Me) = CN([C@@H](CCCCCCCN(C)[*:3])C(=O)[*:2])[*:1]; X112 = CN([C@@H](Cc1cc(F)ccc1-c1cnn(C)c1)C(=O)[*:2])[*:1]; X22 = CN([C@@H](Cc1cc(Cl)ccc1-c1cnn(C)c1)C(=O)[*:2])[*:1]; NMe(hhhLys) = CN([C@@H](CCCCCCCN[*:3])C(=O)[*:2])[*:1]; X210 = CC(C)=Cc1ccc(Cl)cc1C[C@@H](C(=O)[*:2])N(C)[*:1]; X164 = C=C(C)c1ccc(Cl)cc1C[C@@H](C(=O)[*:2])N(C)[*:1]; Cyclobutanecarbonyl(1-CF3) = O=C(C1(C(F)(F)F)CCC1)*; cBuCO(3,3-F2-1-CF3) = O=C(C1(C(F)(F)F)CC(F)(F)C1)*; NMePhe(2,5-Cl2) = CN[C@@H](Cc1cc(Cl)ccc1Cl)C(=O)O; Pro(trans-4-F) = O=C(O)[C@@H]1C[C@@H](F)CN1; Gly(cPr) = N[C@H](C(=O)O)C1CC1

Assays:
CyclinA2/CDK2 = molecular target: T1, CyclinA2/CDK2 (Homo sapiens, UniProt P20248); test: Fluorescence Polarization (FP) competitive binding assay, Cyclin A2/Cdk2;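 note: plates equilibrated two hours at room temperature before polarization reading, IC50 fitted from eight-concentration compound titration curves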
T1 construct: purchased CRELUX Protein Services

NCI-H1048 cells = test: MTT proliferation assay, NCI-H1048; assay type: cell-based; conditions: 5 days compound exposure, 1:3 serial dilution starting at 10 μM;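 note: Dose-response in 96-well plates over 8 or 10 concentration points, with exposure spanning 3-4 cell doublings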
CyclinE1/CDK2 = molecular target: T2, CyclinE1/CDK2 (Homo sapiens, UniProt P24864); test: Fluorescence Polarization (FP) competitive binding assay, Cyclin E1/Cdk2;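 note: readings taken after two-hour equilibration at room temperature in HEPES buffer with NaCl, DTT, NP-40 and BSA, IC50 fitted from eight-concentration serial dilution series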
T2 construct: purchased Eurofins, discovery 14-475

CyclinB1/CDK1 = molecular target: T3, CyclinB1/CDK1 (Homo sapiens, UniProt P14635); test: Fluorescence Polarization (FP) competitive binding assay, Cyclin B1/Cdk1;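 note: fluorescence polarization read after equilibration at room temperature, with IC50 taken from serially diluted dose-response curves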
T3 construct: purchased Eurofins, discovery 14-450

OVCAR3 cells = test: MTT proliferation assay, OVCAR3; assay type: cell-based; conditions: 5 days compound exposure, 1:3 serial dilution starting at 10 μM;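 note: compound given as an 8- or 10-point series, one day after plating, with exposure covering roughly 3-4 cell doublings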
[1] = 8 nM Cyclin A2/Cdk2, 2 nM FAM probe; average of 2-3 independent experiments; read-out: Cyclin A FP IC50
[2] = 10 nM Cyclin E1/Cdk2, 2 nM FAM probe, average of 2-3 independent experiments, read-out: Cyclin E FP IC50
[3] = 10 nM Cyclin B1/Cdk1, 2 nM FAM probe; average of 2-3 independent experiments; read-out: Cyclin B FP IC50

Row | Compound | IC50 (CyclinA2/CDK2; [1]) | GI50 (NCI-H1048 cells) | IC50 (CyclinE1/CDK2; [2]) | IC50 (CyclinB1/CDK1; [3]) | GI50 (OVCAR3 cells) | IC50 (CyclinA2/CDK2; read-out: Cyclin A FP IC50; 8 nM Cyclin A2/Cdk2, 2 nM FAM probe; average of 2-3 independent experiments) | IC50 (CyclinE1/CDK2) | IC50 (CyclinB1/CDK1; read-out: Cyclin B FP IC50; 10 nM Cyclin B1/Cdk1, 2 nM FAM probe; average of 2-3 independent experiments)
1 | CC(=O)N1CC=C(c2ccc(F)cc2C[C@H]2C(=O)N(C)CCCCC=CC[C@H](N(C)C(=O)[C@@H](NC(=O)[C@@H]3C[C@@H](F)CN3C(=O)C3(C(F)(F)F)CC(F)(F)C3)C3CC3)C(=O)N[C@@H](CC(C)C)C(=O)N2C)CC1 [Example 39] | 60 nM | 90 nM | 940 nM | 20 nM | 210 nM |  |  | 
2 | CC(C)C[C@@H]1NC(=O)[C@@H](N(C)C(=O)[C@@H](NC(=O)[C@@H]2C[C@@H](F)CN2C(=O)C2(C(F)(F)F)CCC2)C2CC2)CC=CCCCCN(C)C(=O)[C@H](Cc2cc(F)ccc2-c2cncnc2)N(C)C1=O [Example 41] | 160 nM | 100 nM | 810 nM | 20 nM | 130 nM |  |  | 
3 | CC(=O)N1CC=C(c2ccc(F)cc2C[C@H]2C(=O)N(C)CCCCC=CC[C@H](N(C)C(=O)[C@@H](NC(=O)[C@@H]3C[C@@H](F)CN3C(=O)C3(C(F)(F)F)CCC3)C3CC3)C(=O)N[C@@H](CC(C)C)C(=O)N2C)CC1 [Example 42] | 40 nM | 70 nM | 440 nM | 20 nM | 210 nM |  |  | 
4 | CC(=O)N1CCC(c2ccc(F)cc2C[C@H]2C(=O)N(C)CCCCCCC[C@H](N(C)C(=O)[C@@H](NC(=O)[C@@H]3C[C@@H](F)CN3C(=O)C3(C(F)(F)F)CC(F)(F)C3)C3CC3)C(=O)N[C@@H](CC(C)C)C(=O)N2C)CC1 [Example 45, (2S,4R)—N—((S)-2-(((3S,6S,9S)-3-(2-(1-acetylpiperidin-4-yl)-5-fluorobenzyl)-6-isobutyl-1,4-dimethyl-2,5,8-trioxo-1,4,7-triazacyclohexadecan-9-yl)(methyl)amino)-1-cyclopropyl-2-oxoethyl)-1-(3,3-difluoro-1-(trifluoromethyl)cyclobutane-1-carbonyl)-4-fluoropyrrolidine-2-carboxamide] ({cBuCO(3,3-F2-1-CF3)}-[Pro(trans-4-F)][Gly(cPr)][NMehhhLys(Me)]L[X184]; lactam 3-C) | 100 nM | 20 nM | 330 nM | 20 nM | 40 nM |  |  | 
5 | CC(C)C[C@@H]1NC(=O)[C@@H](N(C)C(=O)[C@@H](NC(=O)[C@@H]2C[C@@H](F)CN2C(=O)C2(C(F)(F)F)CC(F)(F)C2)C2CC2)CC=CCCCCN(C)C(=O)[C@H](Cc2cc(F)ccc2C2=CCCC2)N(C)C1=O [Example 46] | 20 nM | 720 nM | 350 nM | 20 nM | 790 nM |  |  | 
6 | CC(C)C[C@@H]1NC(=O)[C@@H](N(C)C(=O)[C@H](C)NC(=O)[C@@H]2C[C@@H](F)CN2C(=O)C2(C(F)(F)F)CC(F)(F)C2)CC=CCCCCNC(=O)[C@H](Cc2cc(Cl)ccc2Cl)N(C)C1=O [Example 54] | 390 nM | 470 nM | 3390 nM | 30 nM | 700 nM |  |  | 
7 | CC(C)C[C@@H]1NC(=O)[C@@H](N(C)C(=O)[C@H](C)NC(=O)[C@@H]2C[C@@H](F)CN2C(=O)C2(C(F)(F)F)CC(F)(F)C2)CCCCCCCNC(=O)[C@H](Cc2cc(Cl)ccc2Cl)N(C)C1=O [Example 55] ({cBuCO(3,3-F2-1-CF3)}-[Pro(trans-4-F)]A[NMe(hhhLys)]L[NMePhe(2,5-Cl2)]; lactam 3-C) | 700 nM | 560 nM | 3930 nM | 80 nM | 710 nM |  |  | 
8 | CC(=O)N1[C@H]2CC[C@@H]1C=C(c1ccc(F)cc1C[C@H]1C(=O)N(C)CCCCCCC[C@H](N(C)C(=O)[C@@H](NC(=O)[C@@H]3C[C@@H](F)CN3C(=O)C3(C(F)(F)F)CC(F)(F)C3)C3CC3)C(=O)N[C@@H](CC(C)C)C(=O)N1C)C2 [Example 58] |  | 10 nM |  |  | 10 nM | 20 nM | 620 nM | 20 nM
9 | C=C(C)c1ccc(Cl)cc1C[C@H]1C(=O)NCCCCCCC[C@H](N(C)C(=O)[C@@H](NC(=O)[C@@H]2C[C@@H](F)CN2C(=O)C2(C(F)(F)F)CC(F)(F)C2)C2CC2)C(=O)N[C@@H](CC(C)C)C(=O)N1C [Example 61] ({cBuCO(3,3-F2-1-CF3)}-[Pro(trans-4-F)][Gly(cPr)][NMe(hhhLys)]L[X164]; lactam 3-C) | 20 nM | 20 nM | 1010 nM | 20 nM | 40 nM |  |  | 
10 | CC(C)=Cc1ccc(Cl)cc1C[C@H]1C(=O)NCCCCCCC[C@H](N(C)C(=O)[C@@H](NC(=O)[C@@H]2C[C@@H](F)CN2C(=O)C2(C(F)(F)F)CC(F)(F)C2)C2CC2)C(=O)N[C@@H](CC(C)C)C(=O)N1C [Example 62] ({cBuCO(3,3-F2-1-CF3)}-[Pro(trans-4-F)][Gly(cPr)][NMe(hhhLys)]L[X210]; lactam 3-C) | 30 nM | 60 nM | 390 nM | 20 nM | 70 nM |  |  | 
11 | CC(C)C[C@@H]1NC(=O)[C@@H](N(C)C(=O)[C@@H](NC(=O)[C@@H]2C[C@@H](F)CN2C(=O)C2(C(F)(F)F)CC(F)(F)C2)C2CC2)CCCCCCCN(C)C(=O)[C@H](Cc2cc(F)ccc2-c2cnn(C)c2)N(C)C1=O [Example 65] ({cBuCO(3,3-F2-1-CF3)}-[Pro(trans-4-F)][Gly(cPr)][NMehhhLys(Me)]L[X112]; lactam 3-C) | 20 nM | 10 nM | 270 nM | 20 nM | 10 nM |  |  | 
12 | CC(C)C[C@@H]1NC(=O)[C@@H](N(C)C(=O)[C@@H](NC(=O)[C@@H]2C[C@@H](F)CN2C(=O)C2(C(F)(F)F)CC(F)(F)C2)C2CC2)CCCCCCCNC(=O)[C@H](Cc2cc(Cl)ccc2-c2cnn(C3CC3)c2)N(C)C1=O [Example 67] ({cBuCO(3,3-F2-1-CF3)}-[Pro(trans-4-F)][Gly(cPr)][NMe(hhhLys)]L[X68]; lactam 3-C) | 20 nM | 10 nM | 500 nM | 20 nM | 10 nM |  |  | 
13 | CC(=O)N1CC=C(c2ccc(Cl)cc2C[C@H]2C(=O)N(C)CCCCCC[C@H](N(C)C(=O)[C@@H](NC(=O)[C@@H]3C[C@@H](F)CN3C(=O)C3(C(F)(F)F)CC(F)(F)C3)C3CC3)C(=O)N[C@@H](CC(C)C)C(=O)N2C)CC1 [Example 74] | 50 nM | 110 nM | 3620 nM | 20 nM | 170 nM |  |  | 
14 | CC(C)C[C@@H]1NC(=O)[C@@H](N(C)C(=O)[C@@H](NC(=O)[C@@H]2CCCN2C(=O)C2(C(F)(F)F)CCC2)C2CC2)CCCCCCCN(C)C(=O)[C@H](Cc2cc(Cl)ccc2-c2cnn(C)c2)N(C)C1=O [Example 76] ({Cyclobutanecarbonyl(1-CF3)}-P[Gly(cPr)][NMehhhLys(Me)]L[X22]; lactam 3-C) | 20 nM | 80 nM | 880 nM | 20 nM | 120 nM |  |  | 
15 | CC(C)C[C@@H]1NC(=O)[C@@H](N(C)C(=O)[C@@H](NC(=O)[C@@H]2CCCN2C(=O)C2(C(F)(F)F)CC(F)(F)C2)C2CC2)CCCCCCCN(C)C(=O)[C@H](Cc2cc(Cl)ccc2-c2cnn(C)c2)N(C)C1=O [Example 77] ({cBuCO(3,3-F2-1-CF3)}-P[Gly(cPr)][NMehhhLys(Me)]L[X22]; lactam 3-C) | 20 nM | 60 nM | 1710 nM | 20 nM | 70 nM |  |  | 
16 | COCn1cc(-c2ccc(Cl)cc2C[C@H]2C(=O)N(C)CCCCC=CC[C@H](N(C)C(=O)[C@@H](NC(=O)[C@@H]3C[C@@H](F)CN3C(=O)C3(C(F)(F)F)CC(F)(F)C3)C3CC3)C(=O)N[C@@H](CC(C)C)C(=O)N2C)cn1 [Example 79] | 50 nM | 30 nM | 630 nM | 20 nM | 40 nM |  |  | 
17 | CC(C)C[C@H]1NC(=O)[C@H](N(C)C(=O)[C@H](NC(=O)[C@H]2C[C@H](F)CN2C(=O)C2(C#N)CCC2)C2CC2)CCCCCCCN(C)C(=O)[C@@H](Cc2cc(Cl)ccc2-c2cnn(C)c2)N(C)C1=O [Example 82] | 20 nM | 30 nM | 220 nM | 20 nM | 70 nM |  |  | 
18 | CC(C)C[C@@H]1NC(=O)[C@@H](N(C)C(=O)[C@@H](NC(=O)[C@@H]2C[C@@H](F)CN2C(=O)C2(C(F)(F)F)CCC2)C2CC2)CC=CCCCCN(C)C(=O)[C@H](Cc2cc(F)ccc2-c2cnn(CC(F)F)c2)N(C)C1=O [Example 83] | 40 nM | 20 nM | 100 nM | 20 nM | 10 nM |  |  | 
19 | CC(C)C[C@@H]1NC(=O)[C@@H](N(C)C(=O)[C@@H](NC(=O)[C@@H]2C[C@@H](F)CN2C(=O)C2(C(F)(F)F)CC(F)(F)C2)C2CC2)CC=CCCCCN(C)C(=O)[C@H](Cc2cc(F)ccc2-c2cnn(C3CCOCC3)c2)N(C)C1=O [Example 84] | 50 nM | 20 nM | 290 nM | 20 nM | 10 nM |  |  | 
20 | CC(C)C[C@@H]1NC(=O)[C@@H](N(C)C(=O)[C@@H](NC(=O)[C@@H]2C[C@@H](F)CN2C(=O)C2(C(F)(F)F)CC(F)(F)C2)C2CC2)CC=CCCCCN(C)C(=O)[C@H](Cc2cc(F)ccc2-c2cnn(C3CCOC3)c2)N(C)C1=O (stereo partly drawn) [Example 85] | 60 nM | 20 nM | 280 nM | 20 nM | 20 nM |  |  | 
21 | CC(C)C[C@@H]1NC(=O)[C@@H](N(C)C(=O)[C@@H](NC(=O)[C@@H]2C[C@@H](F)CN2C(=O)C2(C(F)(F)F)CC(F)(F)C2)C2CC2)CC=CCCCCN(C)C(=O)[C@H](Cc2cc(F)ccc2-c2cnn(C3CC3)c2)N(C)C1=O [Example 86] | 60 nM | 20 nM | 250 nM | 20 nM | 20 nM |  |  | 
